The compounds below were run against T1, full-length SHP2 (His6-tagged SHP2(2-527)) (Homo sapiens, UniProt Q06124) (assay: SHP2 Enzymatic Assay (fluorescence intensity kinetic assay, DiFMUP hydrolysis)). Settings: not given.
T1 construct: His6-tagged SHP2(2-527); His6; made in house; host or cells: E. coli
Type: biochemical
Method: A fluorescence intensity kinetic assay was configured for full-length SHP2 that monitors the amount of 6,8-difluoro-7-hydroxy-4-methylcoumarin (“DiFMU”) formed upon hydrolysis of 6,8-difluoro-4-methylumbelliferyl phosphate (“DiFMUP”) by SHP2. Assay mixtures consisted of 25 mM K^+HEPES, pH 7.4, 0.01% Triton X-100, 1 mM DTT, 50 mM KCl, 100 μg/mL bovine γ-globulin, 50 μM DiFMUP, 1 μM SHP2 activating peptide (LN(pY)IDLDLV(dPEG8)LST(pY)ASINFQK-amide), 1 nM full-length SHP2 (His6-tagged SHP2(2-527), recombinantly expressed in E. coli and purified in-house) and 2% dimethylsulfoxide (“DMSO”) (from compound). […] The assay was run in 384-well, polystyrene, low-volume, non-treated, black microtiter plates (Costar 4511) in a final volume of 20 μL. Low control wells lacked enzyme. The assays were initiated by the addition of a mixture of SHP2 and the activating peptide, and following a 15 second mix on an orbital shaker, were read in kinetic mode for 15 minutes (30 seconds/cycle) at ambient temperature on a PerkinElmer EnVision microplate reader (λEx=355 nm, λEm=460 nm). Initial velocities (slopes of the tangents at t=0) were estimated from exponential fits to the slightly nonlinear progress curves and then were converted to percent of control (“POC”) using the following equation:
[formula] • Where: Xmax Average Uninhibited Controls • Xmin Average Background A 4-parameter logistic model was the fit to the POC data for each compound. From that fit, the IC50 was estimated and is defined as the concentration of compound at which the curve crosses 50 POC.
The reported IC50 in Table 1 may be from a single assay or the mean of multiple assays.

T1 sequence (Q06124 2-527): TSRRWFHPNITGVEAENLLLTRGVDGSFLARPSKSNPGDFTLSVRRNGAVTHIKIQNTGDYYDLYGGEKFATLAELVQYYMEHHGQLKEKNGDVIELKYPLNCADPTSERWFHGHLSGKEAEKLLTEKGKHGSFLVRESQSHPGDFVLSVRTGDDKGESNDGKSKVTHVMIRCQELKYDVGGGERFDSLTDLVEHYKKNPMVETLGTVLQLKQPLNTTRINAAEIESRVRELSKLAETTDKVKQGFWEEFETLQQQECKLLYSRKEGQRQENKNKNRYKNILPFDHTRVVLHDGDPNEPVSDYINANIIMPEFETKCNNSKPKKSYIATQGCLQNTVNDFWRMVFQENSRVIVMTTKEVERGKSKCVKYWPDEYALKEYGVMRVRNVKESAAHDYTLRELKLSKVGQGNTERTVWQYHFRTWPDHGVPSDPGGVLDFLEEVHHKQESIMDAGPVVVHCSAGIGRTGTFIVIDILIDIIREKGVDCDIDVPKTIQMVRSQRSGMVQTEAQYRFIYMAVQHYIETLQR

**Q.** C[C@@]1(N)CCCN(c2cnc3nc(Sc4ccnc(N)c4Cl)ccc3n2)CC1 (single isomer, unassigned) [Example 74] was tested. Which IC50 did it give?
**A.** Its IC50 is 42 nM.

**Q.** C[C@]1(N)CCCN(c2cnc3nc(Sc4ccnc(N)c4Cl)ccc3n2)CC1 (single isomer, unassigned) [Example 75] was tested. Which IC50 did it give?
**A.** The IC50 was 30 nM.

**Q.** For N#Cc1ccc2c(c1)[C@@H](N)C1(CCN(c3cnc4nc(Sc5ccnc(N)c5Cl)ccc4n3)CC1)C2 (single isomer, unassigned) [Example 112], which IC50 is on record?
**A.** Its IC50 is 33 nM.

**Q.** With COc1ccc2c(n1)CC1(CCN(c3cnc4nc(Sc5ccnc(N)c5Cl)ccc4n3)CC1)[C@H]2N (single isomer, unassigned) [Example 116] as the compound, how does the IC50 read?
**A.** The IC50 was 36 nM.

**Q.** With Nc1nccc(Sc2ccc3nc(N4CCC5(CC4)Cc4ncc(F)cc4[C@@H]5N)cnc3n2)c1Cl (single isomer, unassigned) [Example 118] as the compound, how does the IC50 read?
**A.** The IC50 was 45 nM.

**Q.** For CNc1nccc(Sc2ccc3nc(N4CCC[C@@](C)(N)CC4)cnc3n2)c1Cl (single isomer, unassigned) [Example 148], which IC50 is on record?
**A.** Its IC50 is 93 nM.

**Q.** With CNc1nccc(Sc2ccc3nc(N4CCC[C@](C)(N)CC4)cnc3n2)c1Cl (single isomer, unassigned) [Example 149] as the compound, how does the IC50 read?
**A.** The IC50 was 98 nM.

**Q.** How did the IC50 turn out when Cc1nccc(Sc2ccc3nc(N4CCC[C@@](C)(N)CC4)cnc3n2)c1Cl (single isomer, unassigned) [Example 150] was run?
**A.** The IC50 was 50 nM.

**Q.** Which IC50 does the source give for Cc1nccc(Sc2ccc3nc(N4CCC[C@](C)(N)CC4)cnc3n2)c1Cl (single isomer, unassigned) [Example 151] here?
**A.** The IC50 was 76 nM.

**Q.** With CC1(N)CCN(c2cnc3nc(-c4cccc(Cl)c4)ccc3n2)CC1 [Example 3, 1-(6-(3-chlorophenyl)pyrido[2,3-b]pyrazin-2-yl)-4-methylpiperidin-4-amine] as the compound, how does the IC50 read?
**A.** The IC50 was 1800 nM.

**Q.** C[C@@H]1OCC2(CCN(c3ccc4nc(Sc5cccc(Cl)c5Cl)cnc4n3)CC2)[C@@H]1N [Example 5, (3S,4S)-8-(2-((2,3-dichlorophenyl)thio)pyrido[2,3-b]pyrazin-6-yl)-3-methyl-2-oxa-8-azaspiro[4,5]decan-4-amine] was tested. Which IC50 did it give?
**A.** The IC50 was 4000 nM.

**Q.** Which IC50 does the source give for CC1(N)CCN(c2cnc3nc(Sc4cccc(Cl)c4Cl)ccc3n2)CC1 [Example 6, 1-(6-((2,3-dichlorophenyl)thio)pyrido[2,3-b]pyrazin-2-yl)-4-methylpiperidin-4-amine] here?
**A.** Its IC50 is 58 nM.

**Q.** How did the IC50 turn out when CC1(N)CCN(c2ccc3nc(Sc4cccc(Cl)c4Cl)cnc3n2)CC1 [Example 7, 1-(2-((2,3-dichlorophenyl)thio)pyrido[2,3-b]pyrazin-6-yl)-4-methylpiperidin-4-amine] was run?
**A.** The IC50 was 9500 nM.

**Q.** How did the IC50 turn out when N[C@@H]1CCCC12CCN(c1cnc3nc(Sc4cccc(Cl)c4Cl)ccc3n1)CC2 [Example 8, (R)-8-(6-((2,3-dichlorophenyl)thio)pyrido[2,3-b]pyrazin-2-yl)-8-azaspiro[4.5]decan-1-amine] was run?
**A.** The IC50 was 59 nM.

**Q.** With NC1(CO)CCN(c2cnc3nc(Sc4cccc(Cl)c4Cl)ccc3n2)CC1 [Example 9, (4-amino-1-(6-((2,3-dichlorophenyl)thio)pyrido[2,3-b]pyrazin-2-yl)piperidin-4-yl)methanol] as the compound, how does the IC50 read?
**A.** The IC50 was 62 nM.

**Q.** CC1(N)CCN(c2cnc3nc(Cc4cccc(Cl)c4Cl)ccc3n2)CC1 [Example 10, 1-(6-(2,3-dichlorobenzyl)pyrido[2,3-b]pyrazin-2-yl)-4-methylpiperidin-4-amine] was tested. Which IC50 did it give?
**A.** Its IC50 is 2000 nM.

**Q.** How did the IC50 turn out when CC1(N)CCN(c2cnc3nc(-c4cccc(Cl)c4C(F)(F)F)ccc3n2)CC1 [Example 11, 1-(6-(3-chloro-2-(trifluoromethyl)phenyl)pyrido[2,3-b]pyrazin-2-yl)-4-methylpiperidin-4-amine] was run?
**A.** The IC50 was 2300 nM.

**Q.** COc1cccc(Sc2ccc3nc(N4CCC(C)(N)CC4)cnc3n2)c1Cl [Example 14, 1-(6-((2-chloro-3-methoxyphenyl)thio)pyrido[2,3-b]pyrazin-2-yl)-4-methylpiperidin-4-amine] was tested. Which IC50 did it give?
**A.** The IC50 was 100 nM.

**Q.** CC1(N)CCN(c2cnc3nc(-c4cccc(Cl)c4F)ccc3n2)CC1 [Example 16, 1-(6-(3-chloro-2-fluorophenyl)pyrido[2,3-b]pyrazin-2-yl)-4-methylpiperidin-4-amine] was tested. Which IC50 did it give?
**A.** The IC50 was 290 nM.

**Q.** With CC1(N)CCN(c2cnc3nc(Nc4cccc(Cl)c4Cl)ccc3n2)CC1 [Example 17, 2-(4-amino-4-methylpiperidin-1-yl)-N-(2,3-dichlorophenyl)pyrido[2,3-b]pyrazin-6-amine] as the compound, how does the IC50 read?
**A.** The IC50 was 870 nM.

**Q.** How did the IC50 turn out when CN(C)C1(C)CCN(c2cnc3nc(-c4cccc(Cl)c4Cl)ccc3n2)CC1 [Example 18, 1-(6-(2,3-dichlorophenyl)pyrido[2,3-b]pyrazin-2-yl)-N,N,4-trimethylpiperidin-4-amine] was run?
**A.** The IC50 was 570 nM.

**Q.** For CC1(N)CCN(c2cnc3nc(-c4ccnc(N5CCCC5)c4Cl)ccc3n2)CC1 [Example 19, 1-(6-(3-chloro-2-(pyrrolidin-1-yl)pyridin-4-yl)pyrido[2,3-b]pyrazin-2-yl)-4-methylpiperidin-4-amine], which IC50 is on record?
**A.** The IC50 was 1700 nM.

**Q.** How did the IC50 turn out when COc1nccc(Sc2ccc3nc(N4CCC(C)(N)CC4)cnc3n2)c1Cl [Example 20, 1-(6-((3-chloro-2-methoxypyridin-4-yl)thio)pyrido[2,3-b]pyrazin-2-yl)-4-methylpiperidin-4-amine] was run?
**A.** Its IC50 is 360 nM.

**Q.** Which IC50 does the source give for COc1nccc(-c2ccc3nc(N4CCC5(CC4)CO[C@@H](C)[C@H]5N)cnc3n2)c1Cl [Example 21, (3S,4S)-8-(6-(3-chloro-2-methoxypyridin-4-yl)pyrido[2,3-b]pyrazin-2-yl)-3-methyl-2-oxa-8-azaspiro[4.5]decan-4-amine] here?
**A.** The IC50 was 5700 nM.

**Q.** How did the IC50 turn out when CC1(CN)CCN(c2cnc3cc(-c4cccc(Cl)c4Cl)ccc3n2)CC1 [Example 23, (1-(6-(2,3-dichlorophenyl)quinoxalin-2-yl)-4-methylpiperidin-4-yl)methanamine] was run?
**A.** Its IC50 is 2500 nM.

**Q.** Which IC50 does the source give for C[C@@]1(N)CCN(c2cnc3nc(Sc4ccnc(N)c4Cl)ccc3n2)C1 [Example 24, (R)-4-((2-(3-amino-3-methylpyrrolidin-1-yl)pyrido[2,3-b]pyrazin-6-yl)thio)-3-chloropyridin-2-amine] here?
**A.** Its IC50 is 200 nM.

**Q.** For COc1ccc(F)c(-c2ccc3nc(N4CCC(C)(N)CC4)cnc3n2)c1Cl [Example 26, 1-(6-(2-chloro-6-fluoro-3-methoxyphenyl)pyrido[2,3-b]pyrazin-2-yl)-4-methylpiperidin-4-amine], which IC50 is on record?
**A.** Its IC50 is 920 nM.

**Q.** CC1(CN)CCN(c2cnc3nc(-c4cccc(Cl)c4Cl)ccc3n2)CC1 [Example 27, (1-(6-(2,3-dichlorophenyl)pyrido[2,3-b]pyrazin-2-yl)-4-methylpiperidin-4-yl)methanamine] was tested. Which IC50 did it give?
**A.** Its IC50 is 500 nM.

Same assay, conditions: full-length SHP2 with 1 μM activating peptide, 50 μM DiFMUP; single assay or mean of multiple assays; read-out: Biological Example 1 IC50

**Q.** How did the IC50 turn out when CC1(N)CCN(c2cnc3nc(-c4cccc(Cl)c4Cl)ccc3n2)CC1 [Example 2, 1-(6-(2,3-dichlorophenyl)pyrido[2,3-b]pyrazin-2-yl)-4-methylpiperidin-4-amine] was run?
**A.** The IC50 was 93 nM.

**Q.** How did the IC50 turn out when CC1(CN)CCN(c2cnc3nc(Sc4ccnc(N)c4Cl)ccc3n2)CC1 [Example 12, 4-((2-(4-(aminomethyl)-4-methylpiperidin-1-yl)pyrido[2,3-b]pyrazin-6-yl)thio)-3-chloropyridin-2-amine] was run?
**A.** Its IC50 is 61 nM.

**Q.** With CC1(N)CCN(c2cnc3nc(Oc4cccc(Cl)c4Cl)ccc3n2)CC1 [Example 15, 1-(6-(2,3-dichlorophenoxy)pyrido[2,3-b]pyrazin-2-yl)-4-methylpiperidin-4-amine] as the compound, how does the IC50 read?
**A.** Its IC50 is 340 nM.

**Q.** CC1(N)CCN(c2cnc3cc(-c4cccc(Cl)c4Cl)ccc3n2)CC1 [Example 22, 1-(6-(2,3-dichlorophenyl)quinoxalin-2-yl)-4-methylpiperidin-4-amine] was tested. Which IC50 did it give?
**A.** The IC50 was 700 nM.
